Measured values as given in US20040242591A1, “Oxazolidinone derivatives as pontential antimicrobials” (priority 2001, published 2004).

Columns and labels:
Ent. faecalis ATCC 29212 = experiment: MIC by agar incorporation method, E.faecalis 29212; assay type: cell-based, Enterococcus faecalis; set-up: unit not given here; settings: Mueller Hinton agar, 10^4 CFU/spot, 18 hours
Excerpt: 3) Ent. faecalis ATCC 29212—Enterococcus faecalis ATCC 29212

Strep.pyog. ATCC 19615 = experiment: MIC by agar incorporation method, S.pyogenes 19615; assay type: cell-based, Streptococcus pyogenes; set-up: unit not given here; settings: Mueller Hinton agar, 10^4 CFU/spot, 18 hours
Excerpt: 6) Strep.pyog. ATCC 19615—Streptococcus pyogenes

S. pneum AB 34 = experiment: MIC by agar incorporation method, S. pneum AB 34; assay type: cell-based, Streptococcus pneumoniae; set-up: unit not given here; settings: Mueller Hinton agar, 10^4 CFU/spot, 18 hours
S.aureus ATCC 25923 = experiment: MIC by agar incorporation method, S.aureus 25923; assay type: cell-based, Staphylococus aureus; set-up: unit not given here; settings: Mueller Hinton agar, 10^4 CFU/spot, 18 hours
MRSA 15187 = experiment: MIC by agar incorporation method, MRSA 15187; assay type: cell-based, Methicillin Resistant Staphylococcus aureus; set-up: unit not given here; settings: Mueller Hinton agar, 10^4 CFU/spot, 24 hours
Excerpt: 2) MRSA 15187—Methicillin Resistant Staphylococcus aureus

MRSA 33 = experiment: MIC by agar incorporation method, MRSA 33; assay type: cell-based, Methicillin Resistant Staphylococcus aureus; set-up: unit not given here; settings: Mueller Hinton agar, 10^4 CFU/spot, 24 hours
Strep. pne. ATCC 6303 = experiment: MIC by agar incorporation method, S. pneum 6303; assay type: cell-based, Streptococcus pneumoniae; settings: Mueller Hinton agar, 10^4 CFU/spot, 18 hours
Excerpt: 5) Strep. pne. ATCC 6303—Streptococcus pneumoniae ATCC 6303

VRE 6A = experiment: MIC by agar incorporation method, VRE 6A; assay type: cell-based, Enterococcus faecium; set-up: unit not given here; settings: Mueller Hinton agar, 10^4 CFU/spot, 18 hours
Excerpt: 4) Ent. faecium […]—Enterococcus faecium 6A Van®, Cipro®

MRSA 562 = experiment: MIC by agar incorporation method, MRSA 562; assay type: cell-based, Methicillin Resistant Staphylococcus aureus; set-up: unit not given here; settings: Mueller Hinton agar, 10^4 CFU/spot, 24 hours

Row | In Vitro (MIC) E.faecalis 29212 (Ent. faecalis ATCC 29212) | In Vitro (MIC) S.pyogenes 19615 (Strep.pyog. ATCC 19615) | In Vitro (MIC) S. pneum AB 34 (S. pneum AB 34) | In Vitro (MIC) S.aureus 25923 (S.aureus ATCC 25923) | In Vitro (MIC) MRSA 15187 (MRSA 15187) | In Vitro (MIC) MRSA 33 (MRSA 33) | In Vitro (MIC) S. pneum 6303 (Strep. pne. ATCC 6303) | In Vitro (MIC) VRE 6A (VRE 6A) | In Vitro (MIC) MRSA 562 (MRSA 562) | Compound
1 | 8 | 2 | 8 | 8 | 8 | 4 | 2 µg/mL | 8 | 4 | CC(=O)NC[C@H]1CN(c2ccc(N3CCN(CC(=O)c4cccs4)CC3)c(F)c2)C(=O)O1 [Compound No. 2, (S)-N-[[3-[3-Fluoro-4-[N-1-[4-(2-thiophenoyl-methyl}]piperazinyl]phenyl]-2-oxo-5-oxazolidinyl]methyl]acetamide]
2 | 2 | 4 | 4 | 2 | 1 | 2 | 4 µg/mL | 2 | 1 | CC(=O)NC[C@H]1CN(c2ccc(N3CCN(Cc4cc(Br)c([N+](=O)[O-])s4)CC3)c(F)c2)C(=O)O1 [Compound No. 4]
3 | 2 | 0.5 | 1 | 2 | 2 | 0.254 | 1 µg/mL | 4 | 2 | CC(=O)NC[C@H]1CN(c2ccc(N3CCN(Cc4oc([N+](=O)[O-])cc4C)CC3)c(F)c2)C(=O)O1 [Compound No. 5]
4 | 4 | 1 | 1 | 2 | 2 | 2 | 1 µg/mL | 8 | 2 | CC(=O)NC[C@H]1CN(c2ccc(N3CCN(Cc4cc(C#N)c([N+](=O)[O-])s4)CC3)c(F)c2)C(=O)O1 [Compound No. 6]
5 | 8 | 4 | 16 | 8 | 8 | 4 | 8 µg/mL | 4 | 4 | CC(=O)NC[C@H]1CN(c2ccc(N3CCN(Cc4coc([N+](=O)[O-])c4)CC3)c(F)c2)C(=O)O1 [Compound No. 8, (S)-N-[[3-[3-Fluoro-4-[N-1-[4-{3-furyl(5-nitro)methyl}]piperazinyl]phenyl]-2-oxo-5-oxazolidinyl]methyl]acetamide]
6 | 4 | 0.5 | 1 | 0.25 | 0.25 | 0.25 | 2 µg/mL | 2 | 0.25 | CC(=O)NC[C@H]1CN(c2ccc(N3CCN(Cc4cc([N+](=O)[O-])cs4)CC3)c(F)c2)C(=O)O1 [Compound No. 14, (S)-N-[[3-[3-Fluoro-4-[N-1-[4-{2-thiophen-(4-nitro-)methyl-}]piperazinyl]phenyl]-2-oxo-5-oxazolidinyl]methyl]acetamide]
7 | 4 | 2 | 2 | 4 | 4 | 4 | 2 µg/mL | 4 | 4 | COc1ccc(CN2CCN(c3ccc(N4C[C@H](CNC(C)=O)OC4=O)cc3F)CC2)o1 [Compound No. 15, (S)-N-[[3-[3-Fluoro-4-[N-1-[4-{2-furyl-(5-methoxy)methyl}]piperazinyl]phenyl]-2-oxo-5-oxazolidinyl]methyl]acetamide]
8 | 4 | 1 | 2 | 8 | 4 | 4 | 1 µg/mL | 4 | 4 | CC(=O)NC[C@H]1CN(c2ccc(N3CCN(Cc4ccoc4[N+](=O)[O-])CC3)c(F)c2)C(=O)O1 [Compound No. 18, (S)-N-[[3-[3-Fluoro-4-[N-1[4-{3-furyl(2-nitro)methyl}]piperazinyl]phenyl]-2-oxo-5-oxazolidinyl]methyl]acetamide]
9 | 4 | 2 | 2 | 4 | 4 | 8 | 2 µg/mL | 4 | 8 | CC(=O)NC[C@H]1CN(c2ccc(N3CCN(Cc4cc(N(C)C)c([N+](=O)[O-])s4)CC3)c(F)c2)C(=O)O1 [Compound No. 19, (S)-N-[[3-[3-Fluoro-[N-1-[4-{2-thiophen-(4-dimethylamino-5-nitro)methyl}]piperazinyl]phenyl]-2-oxo-5-oxazolidinyl]methyl]-acetamide]
10 | <0.25 | – | – | 1 | 1 | 1 | – | 0.5 | 0.5 | CC(=O)NC[C@H]1CN(c2ccc(N3CCC(CN(C)Cc4ccc([N+](=O)[O-])o4)CC3)c(F)c2)C(=O)O1 [Compound No. 95]

Row | Compound | In Vitro (MIC) E.faecalis 29212 (Ent. faecalis ATCC 29212) | In Vitro (MIC) S.pyogenes 19615 (Strep.pyog. ATCC 19615) | In Vitro (MIC) S. pneum AB 34 (S. pneum AB 34) | In Vitro (MIC) S.aureus 25923 (S.aureus ATCC 25923) | In Vitro (MIC) MRSA 15187 (MRSA 15187) | In Vitro (MIC) MRSA 33 (MRSA 33) | In Vitro (MIC) S. pneum 6303 (Strep. pne. ATCC 6303) | In Vitro (MIC) VRE 6A (VRE 6A) | In Vitro (MIC) MRSA 562 (MRSA 562)
11 | CC(=O)NC[C@H]1CN(c2ccc(N3CCN(Cc4cc([N+](=O)[O-])cn4C)CC3)c(F)c2)C(=O)O1 [Compound No. 11] | 4 | 2 | 4 | 4 | 4 | 4 | 2 µg/mL | 4 | 4
12 | CC(=O)NC[C@H]1CN(c2ccc(N3CCN(Cc4ccc([N+](=O)[O-])n4C)CC3)c(F)c2)C(=O)O1 [Compound No. 12, (S)-N-[[3-[3-Fluoro-4-[N-1-[4-{2-pyrrole-(1-methyl-5-nitro)methyl}]piperazinyl]phenyl]-2-oxo-5-oxazolidinyl]methyl]acetamide] | 4 | 2 | 8 | 4 | 4 | 4 | 8 µg/mL | 4 | 4
13 | CC(=O)NC[C@H]1CN(c2ccc(N3CCN(Cc4ccc([N+](=O)[O-])[nH]4)CC3)c(F)c2)C(=O)O1 [Compound No. 13, (S)-N-[[3-[3-Fluoro-4-[N-1-[4-{2-pyrrole-(5-nitro)methyl}]piperazinyl]phenyl]-2-oxo-5-oxazolidinyl]methyl]acetamide] | 4 | 1 | 4 | 4 | 2 | 4 | 4 µg/mL | 4 | 4
